Target: Substance-P receptor (Bos taurus)
Experiment: Binding affinity was measured against the Tachykinin receptor 1 in bovine retina using [3H]SP

SMILES | IC50 [nM]
Cc1cc(C)cc(C(=O)N[C@H]2CCN(C(=O)c3cc(Cl)cc(Cl)c3)[C@H](Cc3ccccc3)C2)c1 | 25.7
Cc1cc(C)cc(C(=O)N2CC[C@H](NCCc3ccccc3)C[C@H]2Cc2ccccc2)c1 [CGP-47899] | 15.1
